This is an account of results in publication PMC6769468, “Endogenous Neuropeptide Nocistatin Is a Direct Agonist of Acid-Sensing Ion Channels (ASIC1, ASIC2 and ASIC3)” (Biomolecules, 2019).

Ends that are not written are not given here.

One assay deals with mouse. The conditions noted are these: cited from earlier work. The source says:
(§1) The nocistatin in mammalian is expressed as a precursor protein coding three neuropeptides (nocistatin, nociceptin, and Orphanin FQ2). […] Nocistatin is well represented in different parts of the brain and spinal cord. […] Nocistatin was studied in animal models as a prospective molecule together with opi ...

For assay [1] the following is noted: ref [27]; cited from earlier work.
Excerpt: as §1

Assay [2] deals with canonical transient receptor potential cation (TRPC) channels. The settings on record: via unidentified G-coupled receptor(s), Gαq/11-phospholipase C-protein kinase C pathway; ref [31]; cited from earlier work.
Excerpt: as §1

For another assay, the system named is NIPSNAP1. The conditions noted are these: ref [32]; cited from earlier work.
Excerpt: as §1

The next assay deals with mice. The settings on record: ref [28]; cited from earlier work.
Excerpt: as §1

A further assay deals with T1, rat ASIC1b (Rattus norvegicus, UniProt P55926).
T1 construct: expressed in transfected cells; host or cells: Xenopus laevis oocytes (injected)
T1 sequence (P55926 1-559 isoform P55926-3): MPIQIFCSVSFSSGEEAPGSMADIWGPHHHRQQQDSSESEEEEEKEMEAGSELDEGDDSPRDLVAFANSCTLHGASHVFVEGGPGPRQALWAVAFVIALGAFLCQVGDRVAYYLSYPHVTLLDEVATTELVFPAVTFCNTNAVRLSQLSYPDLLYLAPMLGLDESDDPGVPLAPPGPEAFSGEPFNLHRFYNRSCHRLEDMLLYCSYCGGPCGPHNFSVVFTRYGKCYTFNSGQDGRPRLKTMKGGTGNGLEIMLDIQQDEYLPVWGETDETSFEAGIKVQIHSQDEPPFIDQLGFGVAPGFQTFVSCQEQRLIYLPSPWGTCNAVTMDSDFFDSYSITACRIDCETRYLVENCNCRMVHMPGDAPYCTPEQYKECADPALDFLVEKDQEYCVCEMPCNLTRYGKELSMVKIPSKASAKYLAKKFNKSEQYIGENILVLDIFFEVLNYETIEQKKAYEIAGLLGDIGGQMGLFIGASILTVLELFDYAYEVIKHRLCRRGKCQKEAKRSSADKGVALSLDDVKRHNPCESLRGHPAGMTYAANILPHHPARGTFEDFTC
Put plainly: Whole-cell current activation, rat ASIC1b in X. laevis oocytes. In kind it is cell-based. As for the experimental part: Oocytes expressed rASIC1a, rASIC1b, rASIC2a, and rASIC3 homomeric channels were prepared as described. Injected oocytes were kept for two–three days at 19 °C and then for up to seven days at 15 °C in ND-96 medium supplemented with gentamycin (50 μg·mL^−1) and containing (in mM): 96 NaCl, 2 KCl, 1.8 CaCl2, 1 MgCl2, and 10 HEPES titrated to pH 7.4 with NaOH. Electrophysiological recordings were performed using the GeneClamp500 amplifier (Axon Instruments, Inverurie, UK) at a holding potential of -50 mV. The data were filtered at 20 Hz and digitized at 100 Hz using the L780 AD converter (L-Card, Moscow, Russia). Microelectrodes were filled with 3 M KCl. The external bath solution was ND-96 with pH adjusted to 7.4/7.8 (10 mM HEPES) /8.5 (10 mM Tris). Nocistatin containing solutions were freshly prepared and buffered each experimental day in ND-96 bath solution (pH 7.4/7.8/8.5). Proton-activated currents through ASIC channels were elicited by application of ND-96, in which 10 mM of HEPES was substituted with 10 mM MES at pH 5.5/ 10 mM acetic acid at pH 4.5. The whole-cell recording was performed if a response to the control pH stimulus was stable in at least two replicates. Nocistatin-activated currents were elicited by application of nocistatin containing solutions with various concentrations of the peptide.
Extracellular solutions were applied using a computer-controlled valve system with a flow rate of 1 mL/min. The oocyte chamber volume was 80 µL. The validity of the application system for studying ASIC channels expressed in oocytes was confirmed in experiments by application of a Cl-free solution (containing (in mM): 130 NMDG, 1 MgGluc2, 2 KGluc, 5 HEPES) (pH 7.4). Fast application of proton/peptide-activating solution was performed at a flow rate of 1 mL/sec (the change of the bath solution occurred within 100 ms), followed by PC controlled flow stopping (from 5 to 15 s).
(d) The time course of curves’ decay was fitted using a mono-exponential equation: F4(x) = A1*e^(-x/τdes) + A0, where F4(x) is the current amplitude at the time point x, A1 is the maximal current amplitude, A0 is its steady-state value and τdes is the […].
All data are presented as mean ± SEM. The significance of normalized data differences was determined with a non-parametric Kruskal-Wallis ANOVA test with the significance level * p < 0.05 and ** p < 0.01; ns, non-significant.

“MPRVRSVVQARDAEPEADAEPVADEADEVEQKQLQ [rNS]”: in the assay with mouse (doses of 0.5–500 pg per mouse, ref [29]), the “Effect on nociceptin-caused allodynia and thermal hyperalgesia” value was “eliminated allodynia and thermal hyperalgesia effects”. The “Effect in algogenic-induced nociceptive flexion test” value in the assay with mouse (i.pl. 0.01–1 pmol per mouse, ref [30]) was “induced pronociceptive responses”. Moreover, the “Effect on scopolamine-induced impairment of learning and memory” value in assay [1] is “prevented the disruption of learning and memory processes”. Also, in assay [2], the “Effect on TRPC channels” value is “opening of canonical transient receptor potential cation (TRPC) channels”. The “Binding to NIPSNAP1” value with NIPSNAP1 is “nocistatin binding proteins”. In addition, in the assay with mice, the “Effect in elevated plus-maze test” value is “produced anxiogenic-like actions”. For the same sequence, on rat ASIC1b (1 mM rNS vs pH drop 7.4–5.5), the “Acurrent, nocistatin versus protons” value was “did not differ between protons and nocistatin”; the “Desensitization time, difference between stimuli” value is on record as “No differences were observed in desensitization time”; the “tmax, nocistatin versus protons” value is listed as “no differences”. The “τdes (desensitization time constant)” value at rat ASIC1b (1 mM rNS, conditioning pH 7.4, mean ± S.E. from 4–7 measurements) stood at 0.5 ± 0.06 s.
